Reference: patent US6815419B1, “Antiulcer agent” (Morinaga Milk Industry Co., Ltd., priority 1999, dated 2004)

Assays:
[1] = tested on: CD (SD) rats; assay: Acute toxicity of single oral administration in rats; type: in vivo; settings: for Number of deaths/Total number, Female: female rats; for Number of deaths/Total number, Male: male rats
Experimental: Male and Female CD (SD) rats, 6 weeks old, purchased from Japan SLC CO., Ltd.) were respectively and randomly classified into three groups (each consisting of five rats) to be used for this experiment.
Commercially available α-lactalbumin (manufactured by Sigma Co., Ltd.) was dissolved in water for injection (manufactured by Otsuka Pharmaceutical Co., Ltd.) to each of a concentration of 100 mg/ml and 200 mg/ml, which were respectively and orally administered in an amount of 1 ml per 100 g of body weight (at each dose of 1000 mg and 2000 mg per 1 kg of rat body weight) to each rat of each group by single oral instillation by means of a metal probe with a rounded tip, in order to examine the acute toxicity. As a blank test, only water for injection (manufactured by Otsuka Pharmaceutical Co., Ltd.) was administered in the same way to each rat of both groups of males and females.

[2] = tested on: alcohol-induced ulcers; assay: Test Method 1: alcohol-induced ulcers in rats, stomach examined after 7 hours; type: in vivo, Wistar rats; settings: test group 1; sum of scores of ten rats; oral 10 mg/kg, 1 mg/ml; 7 hours after HCl/ethanol; blank 50
Experimental: (§1) Male Wistar rats weighing 230 to 270 g, 11 weeks old, (purchased from Japan SLC CO., Ltd.) were randomly classified into six groups (each consisting of ten rats).
(§2) As test agents (antiulcer agents including α-lactalbumin of the present invention as an active ingredient), commercially available α-lactalbumin (manufactured by Sigma Co., Ltd.) was dissolved in distilled water to a concentration of 1 mg/ml to be used. As a test agent for a blank test, distilled water was used.
This experiment was carried out according to the method disclosed by Robert et al. (Gastroenterology, volume 77, pages 433 to 443, 1979) in a manner similar to Example 1. That is, rats fasted for 24 hours were orally administered with each test agent at a dose of 10 mg/kg of an active ingredient in body weight (test group number 1). The test agent for a blank test was orally administered to rats in an amount of 10 ml/kg in body weight (test group number 2). […]
After 7 hours, the rats were killed by ether inhalation, the stomach of each rat was taken out to the body surface, the pyloric part of the stomach was ligated, and then the stomach was removed. […] Then, the curvatura ventriculi major of the stomach fixed by formalin was cut to open, and the degree of ulcers was measured in a manner identical to Example 1.

[3] = tested on: hydrochloric acid and ethanol induced lesions on the mucous membrane of the stomach; assay: Hydrochloric acid and ethanol induced ulcer in rats (method of Robert et al.), stomach examined after 1 hour; type: in vivo, Wistar rats; settings: for Cumulative degree of lesions on mucous membrane: blank 60
Experimental: Male Wistar rats weighing 230 to 270 g, 11 weeks old, (purchased from Japan SLC CO., Ltd.) were randomly classified into five groups (each consisting of ten rats).
The experiment was carried out according to the method disclosed by Robert et al. (Gastroenterology, volume 77, pages 433 to 443, 1979). That is, rats were fasted for 24 hours and were orally administered with each test agent at a dose of 10 mg/kg of an active ingredient in body weight. Test agent 1 for a blank test was orally administered to the rats in an amount of 10 ml/kg body weight. After 30 minutes, hydrochloric acid and ethanol solution [hydrochloric acid and ethanol solution (M=mol/dm^3) prepared by mixing 500 mM of hydrogen chloride (HCl) solution and 75% ethanol solution at a volume ratio of […])] was orally administered to the rats at a dose of 5 ml/kg body weight.
After 1 hour, the rats were killed by ether inhalation, the stomach of each rat was taken out to the body surface, the pyloric part of the stomach was ligated, and then the stomach was removed. Then, 10 ml of 2% formalin solution was injected into the stomach from the cardiac part thereof, and the stomach was subsequently immersed in the formalin solution for 10 minutes for fixation. Then, the curvatura ventriculi major of the stomach fixed by formalin was cut to open, and the degree of ulcers was measured by the following method.
That is, the total area of injured portions on the mucous membrane of each rat was measured, and then the degree of lesions on the mucous membrane of each rat (score) was classified into six grades as shown in Table 1 in accordance with the total area of the injured portion.
This experiment was carried out in a manner identical to Example 1, except that α-lactalbumin included in the test agents as an active ingredient was respectively orally administered at a dose of 0 mg/kg body weight (blank test), 1 mg/kg body weight, 10 mg/kg body weight, or 100 mg/kg body weight.
This experiment was carried out in a manner identical to Example 1, except that α-lactalbumin included as an active ingredient in each test agent was respectively orally administered at a dose of 10 mg/kg body weight. The dose for the blank test was 0 mg/kg body weight.

[4] = tested on: ulcers caused by indomethacin; assay: Test Method 3: ulcers caused by a nonsteroidal anti-inflammatory drug (indomethacin) in rats; type: in vivo, Wistar rats; settings: test group 5; sum of scores of ten rats; oral 10 mg/kg, 1 mg/ml; 7 hours after indomethacin 30 mg/kg oral; blank 50
Experimental: as §1, §2
This experiment was carried out in a manner identical to Method 1 described above, except that ulcers were induced in accordance with the method of Okabe, et al. (Japanese Journal of Pharmacology, volume 29, pages 670 to 673, […]). That is, rats fasted for 24 hours were orally administered with the each test agent at a dose of 10 mg/kg of an active ingredient in body weight (test group number 5). The test agent for a blank test was orally administered to each rat in an amount of 10 ml/kg body weight (test group number 6). After 30 minutes, indomethacin at a dose of 30 mg/kg body weight, which is a representative nonsteroidal anti-inflammatory drug, was orally administered.
After 7 hours, the degree of ulcers was measured in a manner identical to Method 1 described above.

[5] = tested on: stress-induced ulcers; assay: Test Method 2: stress-induced ulcers in rats (restraint and water immersion, Takagi and Okabe); type: in vivo, Wistar rats; settings: test group 3; sum of scores of ten rats; oral 10 mg/kg, 1 mg/ml; 7 hours restraint in water at 23° C.; blank 50
Experimental: as §1, §2
This experiment was carried out in a manner identical to Method 1 described above, except that ulcers were induced according to the method described by Takagi and Okabe (Japanese Journal of Pharmacology, volume 18, pages 9 to 18, 1968). That is, rats fasted for 24 hours were orally administered with each test agent including at a dose of 10 mg/kg of an active ingredient in body weight (test group number 3). The test agent for a blank test was orally administered to rats in an amount of 10 ml/kg body weight (test group number 4). After 30 minutes, each rat was held in a stainless steel restrictive cage, and was left in a water tank at 23° C., standing and submerging to the depth of the bottom of the breast xiphoid process of the rat.
After 7 hours, each rat was pulled up from the water tank, and the degree of ulcers was measured in a manner identical to Method 1 described above.

Substance: α-lactalbumin
- Number of deaths/Total number, Female ([1]; single oral dose 1000 mg/kg): 0/5
- Number of deaths/Total number, Female ([1]; single oral dose 2000 mg/kg): 0/5
- Number of deaths/Total number, Male ([1]; single oral dose 1000 mg/kg): 0/5
- Number of deaths/Total number, Male ([1]; single oral dose 2000 mg/kg): 0/5
- LD50 ([1]; rats, single oral administration): no less than 2000 mg/kg body weight
- Cumulative degree of lesions on mucous membrane [2]: 6
- Concentration of test agent that shows antiulcer effects ([3]; oral dose fixed at 10 mg/kg): no less than 0.5 mg/ml
- Concentration of test agent that shows significant antiulcer effects ([3]; oral dose fixed at 10 mg/kg): no less than 1 mg/ml
- Effective dose for oral administration ([3]; rats, oral, significant antiulcer effects): no less than 10 mg per 1 kg of body weight
- Cumulative degree of lesions on mucous membrane ([3]; sum of scores (0-6, Table 1) of ten rats, oral 10 mg/kg active ingredient, 1 mg/ml, 30 min before HCl/ethanol): 7
- Cumulative degree of lesions on mucous membrane ([3]; sum of scores of ten rats, concentration 0.25 mg/ml, oral dose 10 mg/kg): 30
- Cumulative degree of lesions on mucous membrane ([3]; sum of scores of ten rats, concentration 0.5 mg/ml, oral dose 10 mg/kg): 13
- Cumulative degree of lesions on mucous membrane ([3]; sum of scores of ten rats, concentration 1 mg/ml, oral dose 10 mg/kg): 7
- Cumulative degree of lesions on mucous membrane ([3]; sum of scores of ten rats, concentration 5 mg/ml, oral dose 10 mg/kg): 5
- Cumulative degree of lesions on mucous membrane ([3]; sum of scores of ten rats, concentration 10 mg/ml, oral dose 10 mg/kg): 5
- Cumulative degree of lesions on mucous membrane ([3]; sum of scores of ten rats, oral dose 1 mg/kg, 1 mg/ml): 47
- Cumulative degree of lesions on mucous membrane ([3]; sum of scores of ten rats, oral dose 10 mg/kg, 1 mg/ml): 7
- Cumulative degree of lesions on mucous membrane ([3]; sum of scores of ten rats, oral dose 100 mg/kg, 1 mg/ml): 3
- Cumulative degree of lesions on mucous membrane [4]: 23
- Cumulative degree of lesions on mucous membrane [5]: 12
